In series [1] the test system is Human Lung Carcinoma A549. Nature of the series: Cell Titer-Glo Luminescent Cell Viability assay, antiproliferative activity, A549. The series is classed as cell-based. The note with it: A549 cell line, 72 hours culture with test article, highest concentration 0.4 μM. Here is the method: (§1) The antiproliferative activity was studied against human tumor cell lines, Human Lung Carcinoma A549 and Human Mammary Gland Adenocarcinoma MCF-7 with Promega's Cell Tier-Glo® Luminescent Cell Viability assay.
(§2) A preliminary cell titration was conducted to select the proper seeding density for the growth of these lines for the relevant time frames.
(§3) The tumor cells were seeded in a volume of 90 μL/well of growth medium into a white polystyrene 96-well microculture plate (Corning® Costar® 96-well flat bottom plate, Cat #3917). After 24 hours of incubation in a humidified incubator at 37° C., in an atmosphere of 5% CO2 and 95% air, 10 μL of 10 serially diluted test agent in growth medium were added to each well in duplicate (10 points dose response, highest concentration 0.4 μM, with a 1:2 dilution plus untreated control). After 72 hours of culture with test article, in a humidified incubator at the atmosphere of 5% CO2 and 95% air, the plate cells and Cell Titer-Glo® (Promega G7571) reagents were brought to room temperature to equilibrate for 30 minutes. 100 μL of Cell Titer-Glo® (Promega G7571) reagent was added to each well. The plates were shaken for two minutes and then left to equilibrate for ten minutes prior to reading luminescence on the Biotech Synergy II microplate reader. The IC50 results are listed in the following tables and are shown in graphs in FIG. 5 and FIG. 6.

Series [2] concerns Human Mammary Gland Adenocarcinoma MCF-7. Nature of the series: Cell Titer-Glo Luminescent Cell Viability assay, antiproliferative activity, MCF-7. The format is cell-based. The note with it: MCF7, MCF-7 cell line, 72 hours culture with test article, highest concentration 0.4 μM. Here is the method:
as §1, §2, §3

Series [3] in a line: Encapsulation of purpurin dye in nanogel, aqueous dispersion. The format is physicochemical. The conditions noted are these: 2 mg purpurin, 6 mg PEG diacrylate (MW 1000) β-cyclodextrin crosslinked nanogel, 3 ml di water, stirring overnight. Here is the method:
6 mg of PEG diacrylate (MW 1000) β-cyclodextrin crosslinked nanogel was dispersed in 3 ml of di water, 2 mg of purpurin solid was added to the solution. The resulted mixture was stirring overnight.

For series [4] the following is noted: native cyclodextrin; cited from earlier work.

The values that follow come from patent US12064517B1, “Polymer nanoparticle” (priority 2018, dated 2024).

pIC50: −log10 of the molar value.

As a reminder, the pIC50 is −log10 of the IC50, conventionally taken in molar units. For `CC(=O)O[C@H]1C(=O)[C@@]2(C)[C@H]([C@H](OC(=O)c3ccccc3)[C@]3(O)C[C@H](OC(=O)[C@H](O)[C@@H](NC(=O)c4ccccc4)c4ccccc4)C(C)=C1C3(C)C)[C@]1(OC(C)=O)CO[C@@H]1C[C@@H]2O` [Paclitaxel Control, paclitaxel], the negative-log IC50 (pIC50) was 8.22 in series [1] and 8.97 in series [2].
As for `O=C1c2ccccc2C(=O)c2c(O)c(O)cc(O)c21` [purpurin], the “Aqueous dispersion of purpurin with nanogel” value in series [3] is “dispersed in the aqueous as a transparent colloidal solution”.
As for `OC[C@H]1O[C@@H]2O[C@H]3[C@H](O)[C@@H](O)[C@@H](O[C@H]4[C@H](O)[C@@H](O)[C@@H](O[C@H]5[C@H](O)[C@@H](O)[C@@H](O[C@H]6[C@H](O)[C@@H](O)[C@@H](O[C@H]7[C@H](O)[C@@H](O)[C@@H](O[C@H]1[C@H](O)[C@H]2O)O[C@@H]7CO)O[C@@H]6CO)O[C@@H]5CO)O[C@@H]4CO)O[C@@H]3CO` [α-cyclodextrin], in series [4], the solubility is reported as 129.5 g/kg.
